Literature values in US20070014834A1, “Apparatus and methods of improved delivery of orally-administered therapeutic substances” (priority 2005, published 2007).

Experiments:
[1] = system: citric acid-induced cough; details: guinea-pigs in vivo
[2] = system: capsaicin-induced cough; details: for concentration of capsaicin required to produce a cough, compared with placebo: 10 healthy volunteers
[3] = system: guinea-pig vagus nerve
[4] = system: human vagus nerve

## Cn1cnc2c1c(=O)[nH]c(=O)n2C [theobromine]
[1]
  inhibition of citric acid-induced cough: effectively inhibits
[2]
  concentration of capsaicin required to produce a cough, compared with placebo: around one third higher
[2]; compared with codeine
  effectiveness in stopping persistent coughs compared with codeine: nearly a third more effective
[2]; randomized, double-blind, placebo-controlled study in man
  suppression of capsaicin-induced cough: suppresses
[3]
  inhibition of capsaicin-induced sensory nerve depolarization: directly inhibits
[4]
  inhibition of capsaicin-induced sensory nerve depolarization: directly inhibits

## COc1ccc2c3c1O[C@H]1[C@@H](O)C=C[C@H]4[C@@H](C2)N(C)CC[C@@]341 [codeine]
[2]
  concentration of capsaicin required to produce a cough, compared with placebo: only marginally higher
